Data from patent US20160102099A1, “ANTI-VIRAL COMPOUNDS” (Kineta, Inc., priority 2011, published 2016).
Entries after “also recorded” stand apart in the source; their conditions may differ.

Key:
IFNβ promoter = assay: Luciferase reporter assay, IFNβ promoter; assay type: cell-based; settings: stably transfected human cells, 18-20 hours with compound, FIG. 1A
Method: (§1) Luciferase Assay to Identify Active Compounds. Cultured human cells that were stably transfected with luciferase reporter gene driven by RIG-I responsive promoter (IFNβ, ISG56, or ISG54 promoter) were seeded and allowed to grow overnight. The compound “KIN2000” was then added and cells were grown in the presence of KIN2000 for 18-20 hours. Steady-Glo luciferase substrate (Promega) was added and luminescence was read on a luminometer (Berthold).

ISG56 promoter = assay: Luciferase reporter assay, ISG56 promoter; assay type: cell-based; settings: stably transfected human cells, 18-20 hours with compound, FIG. 1A
Method: as §1

ISG54 promoter = assay: Luciferase reporter assay, ISG54 promoter; assay type: cell-based; settings: stably transfected human cells, 18-20 hours with compound, FIG. 1A
Method: as §1

β-actin promoter = assay: Actin counterscreen (β-actin-luciferase reporter); assay type: cell-based, human; settings: specificity counterscreen, FIG. 1B
HeLa cells = assay: MTS assay to determine cytotoxicity; assay type: cell-based, human; settings: 48 hours, 0, 1, 5, 10 and 20 μM, FIG. 1C
Method: MTS Assay to Determine Cytotoxicity. Cultured human HeLa cells were treated with increasing amounts of compound or equivalent amounts of DMSO diluted in media for 48 hours to see their effect on cell viability. The proportion of viable cells was calculated using a cell viability assay that measures conversion of a tetrazolium compound (3-(4,5-dimethyl-2-yl)-5-(3-carboxymethoxyphenyl)-2-(4-sulfophenyl)-2H-tetrazolium, inner salt; the MTS assay) to a colored formazan compound in live cells. The conversion of MTS to formazan was detected in a 96-well microtiter plate reader, and the resulting optical densities could then be plotted directly to estimate cell viability. CELLTITER 96® AQueous One Solution Cell (Promega) was the one-step assay used, according to the manufacturer's protocol, and cells were incubated for three hours in the presence of reagent before O.D. reading was done. KIN2000 was diluted to final concentrations of 0, 1, 5, 10, and 20 μM in media containing 0.5% DMSO. Negative control wells contained no compound, and positive control for cytotoxicity was examined using an EMCV infection which causes 100% cytopathic effect. Each compound concentration and control was done in triplicate wells.

IRF-3 = assay: Immunofluorescent cytochemistry assay, IRF-3 activation and translocation to the nucleus; assay type: cell-based, human; settings: U2OS cells (method) / HeLa cells (figure legend), 20 hours, increasing amounts, FIG. 2A
Method: Immunofluorescent Cytochemistry Assay to Determine IRF-3 Activation and Translocation to the Nucleus.
The induction of ISG expression mediated by RIG-I is conferred by phosphorylation, dimerization, and nuclear translocation of the IRF-3 transcription factor. Cultured human U2OS cells were treated with increasing amounts of compound or equivalent amounts of DMSO diluted in media for 20 hours. Positive control wells were infected with 100 HA/mL Sendai virus for an equivalent time period. IRF-3 was detected using polyclonal rabbit serum specific to IRF-3 and a secondary antibody conjugated to DYLIGHT™ 488.
(§2) Quantification of Immunofluorescent Assays.
(§3) 96-well plates containing cultured human cells treated with compound and stained for either IRF-3 or NFκB were scanned and quantified using the ARRAYSCAN® instrument and software (Cellomics). Activation of transcription factor is evidenced by increased nuclear intensity normalized for cytoplasmic intensity, or nuclear-cytoplasmic difference.

NFκB = assay: Immunofluorescent cytochemistry assay, NFκB activation; assay type: cell-based, human; settings: HeLa cells, 20 hours, increasing amounts, FIG. 2B
Method: Immunofluorescent Cytochemistry Assay to Determine NFκB Activation.
The innate immune response dependent on RIG-I also activates the NFκB transcription factor and thus increases nuclear levels. Cultured human HeLa cells were treated with increasing amounts of compound or equivalent amounts of DMSO diluted in media for 20 hours. Positive control wells were infected with 100 HA/mL Sendai virus for an equivalent time period. NFκB was detected using, in this example, monoclonal mouse antibody specific to the p65 subunit of NFκB and a secondary antibody conjugated to DyLight 488.
as §2, §3

[1] = tested on: human primary dendritic cells; assay: Ex vivo cytokine expression in primary dendritic cells (Luminex/MAGPIX); assay type: cell-based; settings: dendritic cells, 0, 1 or 10 μM, 24 hours, supernatant, FIG. 3
Method: The activity of KIN2000 in primary immune cells was assayed to determine whether KIN2000 stimulates immune responses. In this example, cultured human primary dendritic cells were treated with 0, 1, or 10 μM of KIN2000 for 24 hours. Supernatant from treated wells was isolated and tested for levels of cytokine protein. Cytokines were detected using specific antibodies conjugated to magnetic beads and a secondary antibody that reacts with Streptavidin/Phycoerythrin to produce a fluorescent signal. The bound beads were detected and quantified using the MAGPIX® instrument (LUMINEX®) in this Example, but a similar technique can also be used to measure fluorescent protein production, such as an ELISA.

Cn1c(=O)c2c(SCc3cccc(C(F)(F)F)c3)nc(-c3ccco3)nc2n(C)c1=O [KIN2000] was tested, and the “induction of IFNβ-luciferase reporter gene” value (IFNβ promoter) was “dose-dependent induction”, the “induction of ISG56-luciferase reporter gene” value (ISG56 promoter) was “dose-dependent induction” and the “induction of ISG54-luciferase reporter gene” value (ISG54 promoter) was “dose-dependent induction”. For the same compound, the “induction of non-specific β-actin promoter (luciferase reporter)” value (β-actin promoter) was “did not induce; also recorded: does not induce”, the “cytotoxicity (MTS cell viability)” value (HeLa cells) was “no evident cytotoxicity; also recorded: did not show evident cytotoxicity” and the “IRF-3 translocation to the nucleus (nuclear-cytoplasmic difference)” value (IRF-3) was “dose dependent increase; also recorded: dose-dependent increase”. For the same compound, the “NFκB translocation (nuclear-cytoplasmic difference)” value (NFκB) was “dose dependent increase; also recorded: dose-dependent increase”, the IL-8 expression [1] was “induce expression; also recorded: dose-dependent expression” and the “MCP-1 (CCL2) expression” value [1] was “induce expression; also recorded: dose-dependent expression”. For the same compound, the “MIP-1α (CCL3) expression” value [1] was “induce expression; also recorded: dose-dependent expression” and the “MIP-1β (CCL4) expression” value [1] was “induce expression; also recorded: dose-dependent expression”.
